In US10945981B2, “Methods for treating familial adenomatous polyposis” (CANCER PREVENTION PHARMACEUTICALS, INC., priority 2019, dated 2021):

Experiments:
[1] = test system: prostoglandin E2 (PGE2); details: 300 mg/day, one month; cited from earlier work
[2] = test system: patients with Familial Adenomatous Polyposis (FAP); assay: Randomized, double-blind phase III trial in FAP patients: FAP-related events (efficacy); format: in vivo, human; details: for Mean time to first FRE: Kaplan-Meier estimated
Description: Patients were stratified by anatomic site with highest polyp burden and surgical status: (a) post colectomy with rectal or ileal pouch polyposis (longest projected time to first FRE); (b) with duodenal polyposis (intermediate projected time to first FRE); and (c) pre-colectomy (shortest projected time to first FRE) prior to randomization to minimize treatment imbalance.
A stratified randomization procedure was used with stratification based on FAP-related time-to-first-event prognosis (see FIG. 1). The event prognosis groups were represented by 1) best (i.e., longest projected time to first FAP-related event)—rectal/pouch polyposis (Post-colectomy (≥3 years S/P IRA or IPAA with >10 polyps; any polyps >5 mm excised at baseline)), 2) intermediate—duodenal polyposis (Spigelman Stage 3 or 4 or Spigelman Stage 3 or 4 down-staged to Spigelman 1 or 2 within the past 6 months), and 3) worst—pre-colectomy. If a subject has two or more of these disease sites, the most severe prognosis stratum was assigned for randomization (e.g. worst>intermediate>best). Since an individual may have more than one disease site involved, the trial assessed time to any defined FAP-related event in the subject as a whole. In order to minimize potential treatment arm imbalance a centralized randomization process was used to balance among treatment groups within prognostic strata.
Lower GI Endoscopy: Patients were evaluated via colonoscopy, flexible or rigid procto-sigmoidoscopy during the screening phase. Biopsies, ablations, and snare excisions at baseline were performed per the clinician's standard of care. If considered eligible based on inclusion criteria, a grossly normal mucosa biopsy was obtained for baseline polyamine measurement. Still and video documentation of the colon (vide infra) or the residual rectum or entire pouch was also obtained for archiving. Polyp size was determined by visual comparison with biopsy forceps that can measure 5.0-5.5 mm in the fully open position. All randomized patients with an intact colon or rectum/pouch had baseline and on-study lower GI endoscopy procedures as part of this trial.
Upper GI Endoscopy: The duodenum was evaluated by forward-viewing and/or side-viewing gastroscopes (with still and video documentation with closed and open biopsy forceps near mucosa). All randomized patients with a duodenum had baseline and on-study UGI endoscopy as part of this trial. Subjects stratified to the duodenal group must have duodenal biopsies of all polyps 1 cm or larger to determine HGD and histology required for determining Stage 3 or 4 Spigelman status.
FAP-related primary events by disease site were as follows: • 1. Pre-operative, intact colon: Disease progression indicating need for colectomy with IRA or total procto-colectomy • 2. Retained rectum or pouch events include one or more of the following: • a) Excisional intervention by endoscopic snare or trans-anal excision to remove any polyp ≥10 mm in size (per pathology report) and/or pathologic evidence of high grade dysplasia. • b) Disease progression indicating need for proctectomy or pouch resection • 3. Duodenal disease includes the following: • a) Progression in Spigelman Stage to more advanced stage (Stage 2, 3 or 4) • b) Disease progression indicating need for excisional intervention (sub-mucosal resection, trans-duodenal excision, ampullectomy, duodenectomy, Whipple procedure) • c) Development of cancer
At six month intervals (+/−two weeks), subjects underwent repeat upper and lower endoscopy. […] Video recordings of all procedures and qualitative assessments were compared to the exam 6 months prior.

[3] = test system: tumor putrescine levels; details: eflornithine infusion, rat-tumor model; cited from earlier work
[4] = test system: patients with Familial Adenomatous Polyposis (FAP); assay: Randomized, double-blind phase III trial in FAP patients: safety (adverse events); details: for Treatment-related serious adverse events: 1 patient each
[5] = disease site colon, number of subjects
[6] = disease site duodenum, number of subjects
[7] = disease site rectum and pouch, number of subjects
[8] = post-colectomy, rectal/ileal pouch stratum

CC(C)Cc1ccc(C(C)C(=O)O)cc1 (stereo not shown) [ibuprofen]
PGE2 levels in flat mucosa [1]: significant decrease

NCCCC(N)(C(=O)O)C(F)F (stereo not shown) [Eflornithine, 2,5-diamino-2-(difluoromethyl)pentanoic acid]
Kaplan-Meier estimated mean time to first FRE ([2]; ITT population): 21.8 months | Event-free rate ([2]; ITT population, cumulative): 59.6% | FREs occurred, percent of patients ([2]; ITT population, cumulative): 40.4% | Surgical FAP-related events, Colon: Event-free proportion ([2]; disease site colon): 76.9% | Surgical FAP-related events, Colon: Colectomy [2, 5]: 0 | Surgical FAP-related events, Colon: Disease progression [2, 5]: 3 | Surgical FAP-related events, Duodenum: Event-free proportion ([2]; disease site duodenum): 72.7% | Surgical FAP-related events, Duodenum: Disease progression [2, 6]: 3 | Surgical FAP-related events, Duodenum: Excisional intervention [2, 6]: 3 | Surgical FAP-related events, Duodenum: Spigelman stage progression [2, 6]: 12 | Surgical FAP-related events, Rectum and Pouch: Event-free proportion ([2]; disease site rectum and pouch): 87.2% | Surgical FAP-related events, Rectum and Pouch: Disease progression [2, 7]: 5 | Surgical FAP-related events, Rectum and Pouch: Proctectomy/pouch resection [2, 7]: 1 | FRE type: Duodenal excision ([2]; duodenal polyposis stratum): 2 | FRE type: Duodenal excision and Spigelman stage progression ([2]; duodenal polyposis stratum): 1 | FRE type: Pouch resection ([2]; duodenal polyposis stratum): 2 | FRE type: Spigelman stage progression ([2]; duodenal polyposis stratum): 7 | FRE type: ≥10 mm polyp removed in rectum/pouch ([2]; duodenal polyposis stratum): 1 | Patients with FRE, % ([2]; duodenal polyposis stratum): (39.4) % | Total FRE ([2]; duodenal polyposis stratum): 13 | Mean time to first FRE ([2]; duodenal polyposis stratum): 21.7 months | Risk reduction versus combination ([2]; duodenal polyposis stratum, combination relative to the arm named): 24% | Patients with FRE, % ([2]; duodenal polyposis stratum, listed as eflornithine): 39.4% | Progression of lower gastrointestinal polyposis: surgeries ([2]; human, in vivo): 1 | Patients with duodenal polyposis progression who underwent duodenal excisional procedures ([2]; number of patients): 3 | FRE type: Pouch resection [2, 8]: 2 | FRE type: Proctocolectomy [2, 8]: 1 | FRE type: Spigelman stage progression [2, 8]: 1 | FRE type: ≥10 mm polyp removed in rectum/pouch [2, 8]: 1 | Patients with FRE, % [2, 8]: (41.7) % | Total FRE [2, 8]: 5 | Mean time to first FRE [2, 8]: 15.7 months | Risk reduction versus combination ([2]; post-colectomy, rectal/ileal pouch stratum, combination relative to the arm named): None | Patients with FRE, % ([2]; post-colectomy, rectal/ileal pouch stratum, listed as eflornithine): 41.7% | FRE type: Colectomy ([2]; pre-colectomy stratum): 2 | FRE type: Colectomy and Spigelman stage progression ([2]; pre-colectomy stratum): 1 | FRE type: Spigelman stage progression ([2]; pre-colectomy stratum): 2 | Patients with FRE, % ([2]; pre-colectomy stratum): (41.7) % | Total FRE ([2]; pre-colectomy stratum): 5 | Mean time to first FRE ([2]; pre-colectomy stratum): 19.7 months | Patients with FRE, % ([2]; pre-colectomy stratum, listed as eflornithine): 41.7% | Risk reduction versus combination ([2]; pre-colectomy stratum, risk reduction for FRE of the combination relative to the arm named): 80% | Event Rate of FAP-related Surgery Events in Lower GI ([2]; subjects with lower GI anatomy): 8/57 (14%) | Lower GI surgery events: Need colectomy ([2]; subjects with lower GI anatomy): 3 | Lower GI surgery events: Need pouch resection ([2]; subjects with lower GI anatomy): 4 | Lower GI surgery events: Need proctectomy ([2]; subjects with lower GI anatomy): 1 | Lower GI surgery events: Total Surgical Events ([2]; subjects with lower GI anatomy): 8 | Progression of lower gastrointestinal polyposis: polypectomies ([2]; ≥10 mm in size and/or high grade dysplasia): 2 | Decrease in tumor putrescine levels [3]: 90% | Discontinuations due to AEs, number of patients [4]: 5 patients | Discontinuations due to AEs, percent of patients [4]: 8.8% | TRAE reported by % of patients [4]: 55.4% | Treatment-related hearing adverse events: Hearing loss N [4]: 1 | Treatment-related hearing adverse events: Tinnitus N [4]: 1 | Treatment-related serious adverse events [4]: stroke | Treatment-related serious adverse events ([4]; listed as CPP-1X): Stroke | Death ([4]; safety population): 0 n (%) | Number of patients discontinuing due to a TRAE ([4]; safety population): 3 (5.4) n (%) | Number of patients reporting TEAEs ([4]; safety population): 49 (87.5) n (%) | Number of patients reporting TEAEs ≥ Grade 3 ([4]; safety population): 17 (30.4) n (%) | Number of patients reporting TRAE: Abdominal distension ([4]; safety population): 4 (7.1) n (%) | Number of patients reporting TRAE: Abdominal pain ([4]; safety population): 4 (7.1) n (%) | Number of patients reporting TRAE: Alopecia ([4]; safety population): 0 n (%) | Number of patients reporting TRAE: Decreased appetite ([4]; safety population): 3 (5.4) n (%) | Number of patients reporting TRAE: Depression ([4]; safety population): 1 (1.8) n (%) | Number of patients reporting TRAE: Diarrhea ([4]; safety population): 5 (8.9) n (%) | Number of patients reporting TRAE: Dizziness ([4]; safety population): 3 (5.4) n (%) | Number of patients reporting TRAE: Dyspepsia ([4]; safety population): 3 (5.4) n (%) | Number of patients reporting TRAE: Fatigue ([4]; safety population): 3 (5.4) n (%) | Number of patients reporting TRAE: Flatulence ([4]; safety population): 3 (5.4) n (%) | Number of patients reporting TRAE: Frequent bowel movements ([4]; safety population): 3 (5.4) n (%) | Number of patients reporting TRAE: Gastritis erosive ([4]; safety population): 0 n (%) | Number of patients reporting TRAE: Headache ([4]; safety population): 8 (14.3) n (%) | Number of patients reporting TRAE: Hematochezia ([4]; safety population): 4 (7.1) n (%) | Number of patients reporting TRAE: Nausea ([4]; safety population): 8 (14.3) n (%) | Number of patients reporting TRAE: Pruritus ([4]; safety population): 2 (3.6) n (%) | Number of patients reporting TRAE: Rash ([4]; safety population): 0 n (%) | Number of patients reporting TRAE: Rectal hemorrhage ([4]; safety population): 3 (5.4) n (%) | Number of patients reporting TRAE: Thrombocytopenia ([4]; safety population): 1 (1.8) n (%) | Number of patients reporting TRAE: Tinnitus ([4]; safety population): 1 (1.8) n (%) | Number of patients reporting TRAE: Upper abdominal pain ([4]; safety population): 2 (3.6) n (%) | Number of patients reporting TRAE: Vomiting ([4]; safety population): 5 (8.9) n (%) | Number of patients reporting TRAEs ([4]; safety population): 31 (55.4) n (%) | Number of patients reporting TRSAEs ([4]; safety population): 1 (1.8) n (%)
